In the NIST ThermoML archive (doi:10.1021/je200213h):

Tests used:
[1] = xn = mol fraction of the nth substance listed; details: 101 kPa, Liquid, Capillary tube (Ostwald / Ubbelohde) method
[2] = 101.33 kPa, Liquid, Capillary tube (Ostwald / Ubbelohde) method

CCC(C)(C)C [2,2-dimethylbutane] + CCCCCl
kinematic viscosity [m2/s], [1]
Details	283.15 K	298.15 K	313.15 K
x1 = 0.0524	5.594e-07	4.802e-07	4.231e-07
x1 = 0.101	5.603e-07	4.809e-07	4.239e-07
x1 = 0.1995	5.627e-07	4.822e-07	4.253e-07
x1 = 0.3081	5.663e-07	4.846e-07	4.275e-07
x1 = 0.3985	5.705e-07	4.867e-07	4.294e-07
x1 = 0.499	5.76e-07	4.898e-07	4.322e-07
x1 = 0.5984	5.822e-07	4.943e-07	4.362e-07
x1 = 0.7015	5.899e-07	5e-07	4.409e-07
x1 = 0.7986	5.992e-07	5.063e-07	4.463e-07
x1 = 0.9002	6.098e-07	5.133e-07	4.52e-07
x1 = 0.9487	6.16e-07	5.17e-07	4.55e-07

CC(C)(C)Cl [2-chloro-2-methylpropane]
[2]
Details	kinematic viscosity [m2/s]
283.15 K	6.992e-07
298.15 K	5.696e-07
313.15 K	4.77e-07

CC(C)(C)Cl [2-chloro-2-methylpropane] + CCC(C)CC
kinematic viscosity [m2/s], [1]
Details	283.15 K	298.15 K	313.15 K
x2 = 0.0496	6.755e-07	5.548e-07	4.681e-07
x2 = 0.0995	6.538e-07	5.4e-07	4.576e-07
x2 = 0.2046	6.148e-07	5.14e-07	4.4e-07
x2 = 0.3023	5.848e-07	4.937e-07	4.256e-07
x2 = 0.405	5.592e-07	4.767e-07	4.14e-07
x2 = 0.5064	5.394e-07	4.637e-07	4.051e-07
x2 = 0.6033	5.235e-07	4.536e-07	3.984e-07
x2 = 0.7038	5.114e-07	4.462e-07	3.933e-07
x2 = 0.8012	5.026e-07	4.41e-07	3.9e-07
x2 = 0.9018	4.964e-07	4.377e-07	3.881e-07
x2 = 0.9514	4.946e-07	4.372e-07	3.88e-07

CC(C)(C)Cl [2-chloro-2-methylpropane] + CCCCCC
kinematic viscosity [m2/s], [1]
Details	283.15 K	298.15 K	313.15 K
x2 = 0.0495	6.722e-07	5.527e-07	4.671e-07
x2 = 0.0989	6.489e-07	5.369e-07	4.565e-07
x2 = 0.2019	6.091e-07	5.105e-07	4.391e-07
x2 = 0.2987	5.81e-07	4.916e-07	4.266e-07
x2 = 0.4043	5.575e-07	4.756e-07	4.162e-07
x2 = 0.4985	5.415e-07	4.651e-07	4.095e-07
x2 = 0.6024	5.287e-07	4.571e-07	4.048e-07
x2 = 0.7017	5.203e-07	4.516e-07	4.019e-07
x2 = 0.7996	5.151e-07	4.489e-07	4.009e-07
x2 = 0.9025	5.123e-07	4.478e-07	4.016e-07
x2 = 0.9498	5.119e-07	4.483e-07	4.023e-07

CC(C)(C)Cl [2-chloro-2-methylpropane] + CCCCCCC
kinematic viscosity [m2/s], [1]
Details	283.15 K	298.15 K	313.15 K
x2 = 0.0519	6.84e-07	5.603e-07	4.741e-07
x2 = 0.1021	6.722e-07	5.532e-07	4.711e-07
x2 = 0.2015	6.546e-07	5.438e-07	4.675e-07
x2 = 0.3006	6.44e-07	5.389e-07	4.666e-07
x2 = 0.3997	6.391e-07	5.38e-07	4.679e-07
x2 = 0.5027	6.376e-07	5.391e-07	4.699e-07
x2 = 0.6011	6.397e-07	5.434e-07	4.735e-07
x2 = 0.7014	6.441e-07	5.489e-07	4.78e-07
x2 = 0.8007	6.504e-07	5.572e-07	4.832e-07
x2 = 0.8966	6.591e-07	5.652e-07	4.894e-07
x2 = 0.9518	6.651e-07	5.706e-07	4.944e-07

CCC(C)Cl (centres undefined) [2-chlorobutane]
[2]
Details	kinematic viscosity [m2/s]
283.15 K	5.237e-07
298.15 K	4.603e-07
313.15 K	4.049e-07

CCC(C)Cl (centres undefined) [2-chlorobutane] + CCC(C)CC
kinematic viscosity [m2/s], [1]
Details	283.15 K	298.15 K	313.15 K
x2 = 0.0518	5.193e-07	4.574e-07	4.031e-07
x2 = 0.101	5.142e-07	4.542e-07	4.004e-07
x2 = 0.2014	5.066e-07	4.483e-07	3.958e-07
x2 = 0.3025	4.995e-07	4.431e-07	3.919e-07
x2 = 0.4027	4.943e-07	4.39e-07	3.885e-07
x2 = 0.4998	4.906e-07	4.362e-07	3.865e-07
x2 = 0.6043	4.881e-07	4.345e-07	3.851e-07
x2 = 0.7008	4.87e-07	4.34e-07	3.844e-07
x2 = 0.8004	4.874e-07	4.337e-07	3.847e-07
x2 = 0.8981	4.897e-07	4.344e-07	3.858e-07
x2 = 0.9481	4.911e-07	4.356e-07	3.868e-07

CCC(C)Cl (centres undefined) [2-chlorobutane] + CCCCCC
kinematic viscosity [m2/s], [1]
Details	283.15 K	298.15 K	313.15 K
x1 = 0.0509	5.186e-07	4.579e-07	4.034e-07
x1 = 0.1002	5.147e-07	4.548e-07	4.012e-07
x1 = 0.1802	5.09e-07	4.501e-07	3.98e-07
x1 = 0.3029	5.025e-07	4.448e-07	3.948e-07
x1 = 0.4045	4.989e-07	4.42e-07	3.932e-07
x1 = 0.4991	4.975e-07	4.408e-07	3.926e-07
x1 = 0.5974	4.968e-07	4.401e-07	3.926e-07
x1 = 0.6992	4.982e-07	4.406e-07	3.939e-07
x1 = 0.7996	5.007e-07	4.419e-07	3.961e-07
x1 = 0.8981	5.055e-07	4.447e-07	3.993e-07
x1 = 0.9477	5.086e-07	4.465e-07	4.015e-07

CCC(C)Cl (centres undefined) [2-chlorobutane] + CCCCCCC
kinematic viscosity [m2/s], [1]
Details	283.15 K	298.15 K	313.15 K
x1 = 0.0506	5.287e-07	4.649e-07	4.086e-07
x1 = 0.0989	5.334e-07	4.686e-07	4.121e-07
x1 = 0.2012	5.44e-07	4.78e-07	4.202e-07
x1 = 0.3016	5.558e-07	4.876e-07	4.283e-07
x1 = 0.3997	5.677e-07	4.978e-07	4.37e-07
x1 = 0.4984	5.812e-07	5.087e-07	4.461e-07
x1 = 0.5994	5.966e-07	5.206e-07	4.558e-07
x1 = 0.6994	6.128e-07	5.331e-07	4.652e-07
x1 = 0.7996	6.304e-07	5.467e-07	4.757e-07
x1 = 0.9006	6.496e-07	5.609e-07	4.866e-07
x1 = 0.9503	6.6e-07	5.684e-07	4.927e-07

CCC(C)CC [3-methylpentane]
[2]
Details	kinematic viscosity [m2/s]
283.15 K	4.928e-07
298.15 K	4.366e-07
313.15 K	3.881e-07

CCC(C)CC [3-methylpentane] + CCCCCl
kinematic viscosity [m2/s], [1]
Details	283.15 K	298.15 K	313.15 K
x1 = 0.0518	5.496e-07	4.734e-07	4.175e-07
x1 = 0.094	5.448e-07	4.704e-07	4.155e-07
x1 = 0.2038	5.326e-07	4.622e-07	4.088e-07
x1 = 0.304	5.228e-07	4.553e-07	4.036e-07
x1 = 0.4059	5.143e-07	4.5e-07	3.988e-07
x1 = 0.5021	5.075e-07	4.453e-07	3.952e-07
x1 = 0.5999	5.017e-07	4.411e-07	3.921e-07
x1 = 0.7043	4.97e-07	4.382e-07	3.896e-07
x1 = 0.8049	4.945e-07	4.365e-07	3.884e-07
x1 = 0.9038	4.928e-07	4.351e-07	3.879e-07
x1 = 0.9492	4.928e-07	4.355e-07	3.877e-07

CCCCCCC [heptane]
[2]
Details	kinematic viscosity [m2/s]
283.15 K	6.697e-07
298.15 K	5.754e-07
313.15 K	4.986e-07

CCCCCC [hexane]
[2]
Details	kinematic viscosity [m2/s]
283.15 K	5.125e-07
298.15 K	4.493e-07
313.15 K	4.039e-07
